Consider one molecule from US4150970A, “Growth regulator for plants” (Board of Trustees of Michigan State University, priority 1977, dated 1979).

Data set [1] deals with Starbonnet rice seedlings. As to the kind of experiment: Growth analysis of Starbonnet rice seedlings under different light intensities (Example VI). Also noted: key to NAR: mg plant weight per cm^2 leaf area per day; RGR / LAR: unit not given here. It is filed as in vivo. As for the experimental part: Rice seed cv. IR-8, or Starbonnet was surface treated with 0.1 percent mercuric chloride and planted in 77 cc plastic cups containing vermiculite and watered with one-fourth Hoagland's nutrient solution containing 3 mM of nitrogen at pH 5.0. After 10 days, seedlings were transplanted to 220 cc specimen cups wrapped in aluminum foil and containing 180 cc of the same Hoagland's nutrient solution. Four seedlings were suspended in the solution with a sponge rubber disc. The plants were grown under a 8 h night at 25° C. and a 16 h day at 30° C. with 21 and 8 μwatts per cm^2 in the blue and red spectra respectively. In the test with varying light intensity the high light intensity was 30 13 and the low intensity was 15 and 8 μwatts per cm^2 for the blue and red spectra respectively. The nutrient solution was renewed every 2 or 3 days. After one week the plants were sorted for size and similar sized plants assigned to the same block for the experiment. Prior to the initiation of a test the plants in each cup were assigned treatment numbers by use of a random number table. […] Sixteen hours prior to a test the foil wrapped cups were tared, and filled with one-half Hoaglands solution containing 6 mM nitrogen. Eighteen μl of chloroform or chloroform containing 1.8 μg triacontanol were placed on 2 cm^2 of Whatman No. 1 filter papers, air dried and placed in the specimen cups. This concentration of 10 μg triacontanol/liter was used for all tests described in the following Examples except where specifically indicated to the contrary. Immediately prior to the test the cups were all brought up to 180 ml. including a set of cups without plants to measure evaporation.
The plants were disected at harvest into shoots and roots. The expanded leaves were cut at the ligule and the newest leaf at the point it entered the sheath. The surface area of expanded leaves were measured using a Lambda Model LI-3000 planimeter. The plants were dried to constant weight in an oven at 100° C. and the roots, expanded leaves, and sheaths were weighed separately.
Growth analysis was conducted according to Evans (1972). The Net Assimulation Rate (NAR) is the increase in plant weight per unit of leaf area over time interval where: W=total weight per plant in mg, T=time in days, and L=leaf area in cm^2. [formula]
The relative growth rate (RGR) is the increase in plant weight per unit of original weight over a time interval and is obtained by: [formula]
The leaf area ratio is the ratio of leaf area to […] over a time interval. [formula]
This Example presents a growth analysis of `Starbonnet` rice seedlings treated with triacontanol under different light intensities, "Low" and "High" intensities are defined above, and in the Table VI these designations represent the light to which each plant was subjected.

A short description of the next data set: Solubility. Type of data set: physicochemical.

Molecules are shown by their SMILES. In brackets after ≈: the same amount, converted by molar mass. Entries after “also recorded” stand apart in the source; their conditions may differ.

For the molecule `CCCCCCCCCCCCCCCCCCCCCCCCCCCCCCO` [Triacontanol, 1-triacontanol], the LAR is 3.31 in data set [1] (high light, 0-4 hours); 3.45 in data set [1] (high light, 5-8 hours); 3.74 in data set [1] (high light, 9-16 hours); 3.76 in data set [1] (low light, 0-4 hours); 3.90 in data set [1] (low light, 5-8 hours); 4.20 in data set [1] (low light, 9-16 hours). Besides, the NAR worked out at 6.42 in data set [1] (high light, 0-4 hours); 3.96 in data set [1] (high light, 5-8 hours); 3.19 in data set [1] (high light, 9-16 hours); 3.77 in data set [1] (low light, 0-4 hours); 4.14 in data set [1] (low light, 5-8 hours); 2.81 in data set [1] (low light, 9-16 hours). For the same molecule, the RGR in data set [1] (high light, 0-4 hours) worked out at 0.89; in data set [1] (high light, 5-8 hours) it was 0.57; in data set [1] (high light, 9-16 hours), 0.50; in data set [1] (low light, 0-4 hours) it was 0.59; in data set [1] (low light, 5-8 hours), 0.67; in data set [1] (low light, 9-16 hours), 0.49. In addition, the “dry weight accumulation per leaf area at low light versus control at high light” value in data set [1] (low light intensities) is given as “as much dry weight per cm^2 of leaf area at low light intensities as the control plants did at the higher light intensity; also recorded: as much dry weight per unit of leaf area at low light intensities as the control plants did at higher light intensities”. Moreover, the “solubility in alcohol, qualitative” value in the data set “Solubility” (alcohol) was “soluble in alcohol”. The “solubility in ether and benzene, qualitative” value in the data set “Solubility” (ether and benzene) is “very soluble in ether and benzene”. Also, the “solubility in water, qualitative” value in the data set “Solubility” (water) was “relatively water insoluble”. For the same molecule, the solubility in “Solubility” (water, read-out: solubility limit in water) is around 0.3 µg/mL (≈ 0.684 µM).

One may read the solubility as the dissolved amount per volume that the medium holds.
